In US6756054B1, “Polycationic sterol derivatives as transfection agents” (IC-VEC Limited, priority 1996, dated 2004):

Tests used:
CFT1 cells = assay: in vitro transfection of CFT1 cells with pCF1-βGal plasmid by cationic liposomes (DC-Chol analogue/DOPE), β-galactosidase expression; format: cell-based; conditions: for rank of DC-Chol analogues for in vitro gene delivery: most effective triamine, tetramine and pentamine; for gene delivery efficiency in vitro over and above DC-Chol/DOPE liposomes: pCF1-βGal plasmid, liposomes with DOPE, relative to DC-Chol/DOPE liposomes formulated in a similar way (FIG. 24)
Method: FIG. 23 is an example of in vitro optimisation of pCF1-βGal plasmid transfection of CFT1 cells in vitro using complexes of pCF1-βGal and cationic liposomes formulated from DC-Chol analogue 8f′ and DOPE 2 (1:1) molar ratio. CFT1 cells were transfected with an array of different cationic liposome and plasmid ratios in a 96-well plate. The extent of transfection in each well was determined after 2 days by measuring the levels of β-galactosidase expression. Plasmid DNA concentration is expressed as the concentration of nucleotides assuming an average nucleotide FWt of 330. Cationic liposome concentration is expressed in terms of the concentration of the constituent DC-Chol analogue 8f′ alone.
FIG. 24 presents rank order of DC-Chol polyamine analogues transfecting CFT1 cells in vitro with the pCF1-βGal plasmid. Gene delivery activity is expressed as a proportion of the activity measured with standard liposomes containing DC-Chol 1 and DOPE 2. The data shown are the averages of four separate experiments, each performed in triplicate.
The ratios in curved brackets refer to the DC-Chol analogue:DOPE 2 molar ratio used to formulate the liposomes. The numbers in square brackets refer to compound serial numbers. Where appropiate DC-Chol analogue name abbreviations are also included (see experimental).
(§1) The ability of cationic liposomes containing the different DC-Chol polyamine analogues to mediate gene delivery was analysed both in vitro and in vivo. Cationic liposomes were formulated by hydrating a dried lipid film, containing DC-Cholanalogue and DOPE 2 in an appropriate molar ratio of either 1:0, 1:1, 1:2 or 2:1 respectively. and vortex mixing.^[32] Cationic liposome/plasmid DNA complexes were then prepared by adding appropriately diluted cationic liposome suspensions into equal volumes of aqueous plasmid DNA solutions at 30° C. and allowing the mixture to equilibrate to ambient temperature over 15 min.^[32] In vitro studies were then performed with immortalised cystic fibrosis airway epithelial (CFT1) cells followed by in vivo studies in which cationic liposome/plasmid DNA complexes were instilled intranasally into the lungs of female BALB/c mice.^[32] Typically, cationic liposome gene delivery was first optimised in vitro so as to establish the best molar ratio of cationic liposome to plasmid DNA (DNA concentration was expressed as nucleotide concentration) as well as the best absolute quantities of both, as illustrated (FIG. 23). This optimised combination was then tested in vivo. The in vitro results are shown (FIG. 24). […] The analogues were 8a′, 8b′, 8e′, 8f′, 13a′ and 17b′, the first four being triamines, the fifth a tetramine and the sixth a pentamine. With one exception, 8f′, these polyamine analogues contain inter-nitrogen methylene group spacings not normally associated with the natural polyamines spermidine 18′ (see for example FIG. 29), spermine 19′ (see for example FIG. 29) and pentamine 20′ (see for example FIG. 29) upon which these structures are based. In vivo (FIG. 25), the best DC-Chol analogues were 13c′, 13f′ and especially 17a′. Both 17a′ and 13c′ also contain unnatural methylene group spacings.
For the in vitro and in vivo tests, a dried lipid film containing the given DC-Chol analogue and DOPE 2 (in either a 1:0, 1:1, 1:2 or 2:1 respective molar ratio), was hydrated for 10 min in sterile pyrogen-free water and then liposomes were produced by 2 min vortex mixing. The average diameter was between 200-400 nm.^[32] Cationic liposomes containing DC-Chol 1 and DOPE 2 were formulated in the same way described previously.^[24, 36]
Cationic liposome/plasmid DNA complexes were then prepared as follows.
Both cationic liposome suspensions and DNA (either pCF1-βGal plasmid expressing β-galactosidase or pCF1-CAT expressing chloramphenicol acetyl transferase)^[32] solutions were separately pre-incubated for 5 min at 30° C., before being diluted to the appropriate final concentrations and then combined. […]

[1] = tested on: lungs of female BALB/c mice; assay: in vivo transfection of mouse lung with pCF1-CAT plasmid by intranasally instilled cationic liposome/DNA complexes, CAT activity in lung homogenates; conditions: for rank of DC-Chol analogues for in vivo gene delivery: female BALB/c mice lung, pCF1-CAT plasmid, optimal formulation, CAT activity after 2 days (FIG. 25)
Method: FIG. 25 presents the rank order of DC-Chol polyamine analogues transfecting the lungs of female BALB/c mice with the pCF1-CAT plasmid. Mice were instilled with a solution of the plasmid (4 mM nucleotide concentration) and the optimal quantity and ratio of cationic liposome, in a total volume of 100 μl. Gene delivery activity was determined as a function of chloramphenicol acetyl transferase activity in lung homogenates after 2 days.
Data points were from separate experiments with each optimal formulation tested in 4 BALB/c mice. The ratios in curved brackets refer to the DC-Chol analogue:DOPE 2 molar ratio. The numbers in square brackets refer to compound serial numbers. Where appropiate DC-Chol analogue name abbreviations are also included (see experimental).
as §1, with “spacings. […]” for “spacings.”

[2] = reported; cited from earlier work
[3] = mouse lung, pCF1-CAT plasmid (FIG. 25)

Compound	rank of DC-Chol analogues for in vitro gene delivery (CFT1 cells)	gene delivery efficiency in vitro over and above DC-Chol/DOPE liposomes (CFT1 cells)	rank of DC-Chol analogues for in vivo gene delivery [1]	other results
CC(C)CCCC(C)C1CCC2C3CC=C4CC(OC(=O)NCCCNCCCN)CCC4(C)C3CCC12C (centres unmarked) [8e′, 4-aza-N′-cholesteryloxycarbonyl-1,7-heptanediamine]	most effective	significant improvements	–	–
CC(C)CCC[C@@H](C)[C@H]1CC[C@H]2[C@@H]3CC=C4C[C@@H](OC(=O)NCCNCCCNCCN)CC[C@]4(C)[C@H]3CC[C@]12C [13a′, N′-cholesteryloxy-carbonyl-3,7-diaza-1,9-nonanediamine]	most effective	significant improvements	–	–
CC(C)CCCC(C)C1CCC2C3CC=C4CC(OC(=O)NCCCNCCCCNCCCN)CCC4(C)C3CCC12C (centres unmarked) [13f′, N^1-cholesteryloxy-carbonyl-4,9-diaza-1,12-dodecanediamine]	–	–	best and most effective	–
CCCCCCCCCCCCOCC(C[N+](C)(C)CCCN)OCCCCCCCCCCCC.[Br-] (centres unmarked) [GAP-DLRIE, (B1)-N-(3-aminopropyl)-N,N-dimethyl-2,3-bis-(dodecyloxy)-1-propanaminium bromide]	–	–	–	in vivo efficacy relative to plasmid DNA alone [2]: about 100 fold
N^10-cholesteryloxycarbonyl-4,8,13-triaza-1,16-hexadecanediamine [17b′]	most effective	significant improvements	–	–
N^15-cholesteryloxycarbonyl-3,7,12-triaza-1,15-pentadecanediamine [17a′]	–	–	best and most effective	effectiveness in mouse lung relative to DC-Chol 1 [1, 3]: about 100 fold; effectiveness in mouse lung relative to plasmid DNA alone [1, 3]: approx 500 fold
